Read-outs that look alike come from different tables or passages of the source.
How the values were obtained:
[1] = target: 5-HT1B; details: Figure 1; ref 21 (compound 1), ChEMBL (compounds 2, 3); cited from earlier work
[2] = target: 5-HT2B; set-up: method as in earlier work; details: Figure 1; ref 21 (1), ChEMBL (2, 3), ref 24 (5), ref 26 (7); cited from earlier work
[3] = system: 5-HT2B; details: cited from earlier work
[4] = system: 5-HT2B; set-up: method as in PMID 8709108; details: Figure 1; cited from earlier work
[5] = target: T1, human 5-HT1B receptor (Homo sapiens, UniProt P28222); assay: Competition binding in human 5-HT1B receptor ([3H]-GR125743, Hela-5-HT1B membranes); details: for Ki: measured if inhibition at 10 µM exceeded 50%, mean ± SD of three assays; for inhibition at 10 µM: 10 µM compound, mean ± SD of three independent assays with duplicate measurements, read-out: 5-HT1B (%) percentage of inhibition
T1 construct: expressed in transfected cells; host or cells: HeLa (Hela-5-HT1B cell line, Lot A001/14-11-2011)
T1 sequence (P28222 whole entry): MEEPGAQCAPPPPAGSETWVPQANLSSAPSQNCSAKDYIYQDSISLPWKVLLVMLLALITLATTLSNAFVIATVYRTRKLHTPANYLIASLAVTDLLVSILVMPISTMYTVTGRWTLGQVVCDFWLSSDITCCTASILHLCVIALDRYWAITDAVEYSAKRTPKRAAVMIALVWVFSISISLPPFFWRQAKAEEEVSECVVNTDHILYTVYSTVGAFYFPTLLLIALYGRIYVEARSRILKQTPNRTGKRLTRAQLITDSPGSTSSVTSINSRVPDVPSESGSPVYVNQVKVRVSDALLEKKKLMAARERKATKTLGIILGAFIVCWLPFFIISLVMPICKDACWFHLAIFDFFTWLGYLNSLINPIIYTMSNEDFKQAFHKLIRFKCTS

[6] = target: T2, human serotonin 5-HT1AR (Homo sapiens, UniProt P08908); assay: Competition binding in human 5-HT1A receptor ([3H]-8-OH-DPAT, HEK293 membranes); details: 5-HT panel screening; mean ± SD
T2 construct: expressed in transfected cells
T2 sequence (P08908 1-422): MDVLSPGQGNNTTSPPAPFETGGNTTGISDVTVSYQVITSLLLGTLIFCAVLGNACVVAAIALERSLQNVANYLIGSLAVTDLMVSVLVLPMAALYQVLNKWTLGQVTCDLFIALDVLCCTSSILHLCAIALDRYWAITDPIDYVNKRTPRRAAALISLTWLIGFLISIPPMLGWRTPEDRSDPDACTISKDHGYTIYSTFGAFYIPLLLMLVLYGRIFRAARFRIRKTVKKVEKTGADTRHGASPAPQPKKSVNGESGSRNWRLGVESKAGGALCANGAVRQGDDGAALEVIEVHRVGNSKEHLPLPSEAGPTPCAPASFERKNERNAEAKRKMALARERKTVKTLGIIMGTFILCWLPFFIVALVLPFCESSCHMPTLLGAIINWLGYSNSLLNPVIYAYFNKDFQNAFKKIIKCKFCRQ

[7] = target: T3, human serotonin 5-HT2A receptor (Homo sapiens, UniProt P28223); assay: Competition binding in human 5-HT2A receptor ([3H]-Ketanserin, HEK293 membranes); details: 5-HT panel screening; mean ± SD
T3 construct: expressed in transfected cells
T3 sequence (P28223 whole entry): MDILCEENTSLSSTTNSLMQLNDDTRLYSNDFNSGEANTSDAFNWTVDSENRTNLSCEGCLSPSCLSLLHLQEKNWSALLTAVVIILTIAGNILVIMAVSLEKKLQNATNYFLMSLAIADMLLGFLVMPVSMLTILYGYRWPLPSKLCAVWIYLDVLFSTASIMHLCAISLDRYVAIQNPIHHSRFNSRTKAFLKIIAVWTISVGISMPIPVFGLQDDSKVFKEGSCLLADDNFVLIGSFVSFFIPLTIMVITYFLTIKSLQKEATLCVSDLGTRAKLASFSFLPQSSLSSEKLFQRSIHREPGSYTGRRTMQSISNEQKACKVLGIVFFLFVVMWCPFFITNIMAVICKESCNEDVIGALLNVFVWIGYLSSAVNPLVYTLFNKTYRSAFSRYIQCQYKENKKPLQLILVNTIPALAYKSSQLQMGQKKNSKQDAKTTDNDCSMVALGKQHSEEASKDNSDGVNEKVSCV

[8] = target: T4, human serotonin 5-HT6 receptor (Homo sapiens, UniProt P50406); assay: Competition binding in human 5-HT6 receptor ([3H]-LSD, HEK293 membranes); details: 5-HT panel screening; mean ± SD
T4 construct: expressed in transfected cells
T4 sequence (P50406 whole entry): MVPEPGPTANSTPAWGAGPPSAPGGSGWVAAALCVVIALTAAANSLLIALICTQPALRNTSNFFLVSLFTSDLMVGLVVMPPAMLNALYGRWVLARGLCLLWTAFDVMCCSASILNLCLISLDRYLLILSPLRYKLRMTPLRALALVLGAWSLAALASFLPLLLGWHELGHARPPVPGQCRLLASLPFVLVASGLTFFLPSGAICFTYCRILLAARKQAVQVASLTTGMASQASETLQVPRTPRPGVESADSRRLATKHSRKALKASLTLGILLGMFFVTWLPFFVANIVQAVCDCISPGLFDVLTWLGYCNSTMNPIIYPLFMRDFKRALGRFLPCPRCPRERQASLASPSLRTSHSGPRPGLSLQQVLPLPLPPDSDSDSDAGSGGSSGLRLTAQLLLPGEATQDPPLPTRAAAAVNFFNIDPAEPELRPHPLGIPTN

[9] = target: T5, human serotonin 5-HT7b receptor (Homo sapiens, UniProt P34969); assay: Competition binding in human 5-HT7 receptor ([3H]-5-CT, HEK293 membranes); details: 5-HT panel screening; mean ± SD
T5 construct: expressed in transfected cells
T5 sequence (P34969 1-432): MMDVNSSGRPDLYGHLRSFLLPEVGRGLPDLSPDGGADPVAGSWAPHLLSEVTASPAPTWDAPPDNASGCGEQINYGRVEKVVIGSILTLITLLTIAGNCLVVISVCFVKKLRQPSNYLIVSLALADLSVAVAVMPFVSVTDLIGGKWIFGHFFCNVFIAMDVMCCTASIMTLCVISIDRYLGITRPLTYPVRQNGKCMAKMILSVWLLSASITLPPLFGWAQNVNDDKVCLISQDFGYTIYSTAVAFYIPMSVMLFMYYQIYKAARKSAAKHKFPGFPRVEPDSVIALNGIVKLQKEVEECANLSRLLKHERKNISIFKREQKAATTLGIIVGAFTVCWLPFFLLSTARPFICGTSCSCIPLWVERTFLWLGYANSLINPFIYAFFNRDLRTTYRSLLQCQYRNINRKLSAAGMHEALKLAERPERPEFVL

[10] = target: human 5-HT2B receptor (Homo sapiens, UniProt P41595); assay: Competition binding in human 5-HT2B receptor ([3H]-LSD, CHO-5-HT2B membranes); details: for 5-HT2BR affinity range in words: conclusions; for inhibition at 10 µM: read-out: 5-HT2B (%) percentage of inhibition
Chain of human 5-HT2B receptor (P41595 whole entry): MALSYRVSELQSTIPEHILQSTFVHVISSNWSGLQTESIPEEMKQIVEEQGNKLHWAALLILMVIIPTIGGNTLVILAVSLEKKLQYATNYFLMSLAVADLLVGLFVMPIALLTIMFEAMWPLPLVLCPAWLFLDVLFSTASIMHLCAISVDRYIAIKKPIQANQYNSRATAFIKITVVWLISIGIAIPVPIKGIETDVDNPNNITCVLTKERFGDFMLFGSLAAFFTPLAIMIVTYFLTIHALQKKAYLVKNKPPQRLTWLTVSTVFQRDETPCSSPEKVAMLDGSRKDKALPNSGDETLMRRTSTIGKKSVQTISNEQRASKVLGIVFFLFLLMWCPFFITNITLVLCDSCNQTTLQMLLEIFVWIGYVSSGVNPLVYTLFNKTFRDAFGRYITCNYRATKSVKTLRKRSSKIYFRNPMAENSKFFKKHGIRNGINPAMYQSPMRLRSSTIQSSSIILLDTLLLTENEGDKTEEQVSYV

CCOC(=O)c1cccc(NC2=NC(N)=NC3(CCCCC3)N2)c1 [Compound 1]
pKi (5-HT1B) [1]: > 5
pKi (5-HT2B) [2]: 8.14

COc1cc(N)c(Cl)cc1C(=O)NC1CCN(CCCOc2ccc(F)cc2)CC1OC (centres unmarked) [Compound 2]
pKi (5-HT1B) [1]: > 5.3

CCCCN1CCC(COC(=O)c2cc(F)c(N)c3c2OCCO3)CC1 [Compound 3]
pKi (5-HT1B) [1]: > 5
pKi (5-HT2B) [2]: 6.78

CC(C)c1cc(-c2ccc(F)c3ccccc23)nc(N)n1 [Compound 4, RS-127445]
IC50 ([3]; Figure 1, read-out: IC50 (5-HT2B)): 0.0007 µM

Cc1cc([N+](=O)[O-])c(N2CCN(Cc3ccccc3)CC2)cc1N [Compound 5, EGIS-7625]
pKi (5-HT2B) [2]: 9.0

COc1ccc(CC2NCCc3c2[nH]c2ccccc32)cc1OC (centres unmarked) [Compound 6, LY-23728]
pKB (5-HT2B) [4]: 9.17

Cn1ccc2cc(NC(=O)Nc3cccnc3)ccc21 [Compound 7, SB-200646A]
pKi (5-HT2B) [2]: 7.5

Cc1c(C(=O)N2CCC(c3ncc[nH]3)CC2)n[nH]c1-c1ccc(Cl)cc1 [Compound 8]
Ki [5]: 2.93 ± 0.321 µM
Ki [6]: > 20 µM
Ki [7]: > 20 µM
Ki [8]: 13.2 ± 1.5 µM
Ki [9]: > 20 µM
Ki [10]: 0.0003 ± 7e-05 µM
5-HT2BR affinity range in words [10]: subnanomolar
selectivity for 5-HT2BR versus 5-HT1BR ([10]; ratio of 5-HT1BR and 5-HT2BR affinity): ten thousand-fold

Cc1c(-c2ccccc2)sc(NC(=O)Cn2c(=O)cnc3ccccc32)c1C(=O)N1CCCCC1 [Compound 9]
Ki [5]: 2.1 ± 0.622 µM
Ki [6]: > 20 µM
Ki [7]: > 20 µM
Ki [8]: 7.5 ± 0.9 µM
Ki [9]: > 20 µM
Ki [10]: 0.235 ± 0.0159 µM
5-HT2BR affinity range in words [10]: submicromolar

Cn1c(CN2CCCCC2)nnc1C1CCCN(CCc2ccccc2)C1 (centres unmarked) [Compound 10]
inhibition at 10 µM [5]: 7 ± 4%
Ki [10]: 2.61 ± 0.422 µM
5-HT2BR affinity range in words [10]: low micromolar

Cc1cccc2[nH]c(C3CCN(C(=O)c4cnn[nH]4)CC3)nc12 [Compound 11]
inhibition at 10 µM [5]: 12 ± 4%
inhibition at 10 µM [10]: 40 ± 3%

COc1cccc(-c2n[nH]cc2C(=O)N2CCCC(c3cc(O)ncn3)C2)c1 (centres unmarked) [Compound 12]
inhibition at 10 µM [5]: 7 ± 1%
inhibition at 10 µM [10]: 36 ± 4%

Cc1ncc(C(=O)N2CCC(c3nccn3Cc3ccccc3)CC2)c(=O)[nH]1 [Compound 13]
inhibition at 10 µM [5]: 19 ± 3%
inhibition at 10 µM [10]: 34 ± 4%

CCOC(=O)c1c(CN2CCCCC2)n(C)c2c1cc(OC(C)=O)c1c2c(-c2ccccc2)nn1-c1ccccc1 [Compound 14]
inhibition at 10 µM [5]: 26 ± 4%
inhibition at 10 µM [10]: 34 ± 4%

COc1ccc2c(c1)NC1(CCN(C(=O)c3ccc(C)c(C)c3)CC1)c1cccn1-2 [Compound 15]
inhibition at 10 µM [5]: 28 ± 3%
inhibition at 10 µM [10]: 31 ± 4%

CCc1ccc(NC(=O)c2ccc(-c3noc(C4CCN(C(=O)c5ccc(F)cc5)CC4)n3)cc2)cc1 [Compound 16]
inhibition at 10 µM [5]: 1 ± 1%
inhibition at 10 µM [10]: 24 ± 4%

O=C(c1ccc(-c2ccccc2)cc1)N1CCC(c2nc3ccccc3[nH]2)CC1 [Compound 17]
IC50 ([3]; Figure 6, closest literature analogue, read-out: IC50 (5-HT2BR)): 0.0024 µM

COc1ccc(NC(=O)c2ccc(-c3ccncc3)c(C)c2)cc1N1CCN(C)CC1 [[^3H]-GR125743, reference compound]
Kd ([5]; radioligand used at […], read-out: KD of radioligand at 5-HT1BR): 0.00074 µM

— paper PMC6100008, “Fingerprint-Based Machine Learning Approach to Identify Potent and Selective 5-HT2BR Ligands” (Molecules : A Journal of Synthetic Chemistry and Natural …, 2018)
